Data: patent US20040005648A1, “PYK2 related products and methods” (Sugen, Inc., priority 1994, published 2004)

System: PYK-2
Test: Tyrosine phosphorylation of PYK-2 in NIH3T3 cell lines that overexpress PYK-2
Assay type: cell-based, mouse
Settings: NIH3T3 cells overexpressing PYK-2 / PYK-2-HA; TPA 6 μM, 15 min at 37° C.
Description: Stable cell lines of NIH3T3 that overexpress PYK2 were established by contransfection of PYK2 subcloned into pLSV together with pSV2neo utilizing lipofectamine reagent (GIBCO BRL). Following transfection the cells were grown in Dulbecco's modified Eagle's medium containing 10% fetal bovine serum and 1 mg/ml G418. Transient transfections into 293 cells were performed by using the calcium phosphate technique (*).
The PYK-2 cDNA cloned in PLSV was cotransfected with pSV2neo into PC12 cells and NIH3T3 in order to establish stable cell lines. G418 resistant colonies were screened by immunoprecipitating and immunoblotting.
NIH3T3 cell lines were established that overexpress the PYK-2 and the PYK-2-HA protein. […] The level of phosphorylation is not so high.

CCCCCCCCCCCCCC(=O)O[C@@H]1[C@@H](C)[C@@]2(O)[C@@H](C=C(CO)C[C@]3(O)C(=O)C(C)=C[C@@H]23)[C@@H]2C(C)(C)[C@]12OC(C)=O [PMA, phorbol 12-myristate 13-acetate]
tyrosine phosphorylation of PYK-2 in response to the agent: stronger effect
